Entries after “also recorded” stand apart in the source; their conditions may differ.
Tests used:
HuAAT5 = test: AAT enzyme assay with the purified HuAAT5 enzyme; assay type: biochemical, Helichrysum umbraculigerum; details: acyl donors acetyl-, iso-butyryl-, iso-valeryl- or hexanoyl-CoA, 30° C., 3 h, pH 7.4
Experimental: (§1) Selected AAT genes from Helichrysum were individually cloned into the pET28b vector and expressed in E. coli BL21 (DE3) cells. Bacterial cells were grown overnight in LB medium at 37° C., diluted in fresh LB 1:100, and re-incubated at 37° C. When cultures reached A600=0.6, protein expression was induced with 400 μM of isopropyl-1-thio-β-d-galactopyranoside (IPTG) overnight at 15° C. Bacterial cells were lysed by sonication in 50 mM Tris-HCl pH 8, 0.5 mM phenylmethylsulfonyl fluoride (PMSF, Sigma Aldrich) solution in isopropanol, 10% glycerol and protease inhibitor cocktail (Sigma Aldrich), and 1 mg ml-1 lysozyme (Sigma Aldrich). The whole-cell extract was either kept for functional activity or used for protein purification. Purification of proteins was performed on Ni-NTA agarose beads (Adar Biotech). The proteins were eluted with 200 mM imidazole (Fluka) in a buffer containing 50 mM NaH2PO4, pH 8, and 0.5 M NaCl. Protein concentration of the eluted fractions was measured with Pierce™ 660 nm protein assay reagent (Thermo Scientific).
(§2) Recombinant AAT assays with the enzyme solutions using different donor and acceptor substrates were performed by mixing 7 μl of the cannabinoid acceptors (OA, CBGA, or heliCBGA, 1 mg ml^−1) with 58 μl of a potassium phosphate buffer (100 mM, pH 7.4) and incubating the mixture at 30° C. for 10 min. Next, 5 μl of the acyl-CoA donors (butyryl-CoA, hexanoyl-CoA, iso-valeryl-CoA, or acetyl-CoA, 10 mM) and 30 μl of the enzyme solutions were added. The reactions were incubated at 30° C. for 3 h. To stop the reactions, 100 μl ethanol was added to each tube, vortexed for 10 s, centrifuged at maximum speed for 10 min, and then the supernatant was recovered and used for UPLC-qTOF analysis. The assay with the purified HuAAT5 enzyme was performed by mixing 2 μl of the cannabinoid acceptors (OA, CBGA, heliCBGA, CBDA, Δ^9-THCA or CBCA) with 2 μl of the acyl-CoA donors (butyryl-CoA, iso-butyryl-CoA, hexanoyl-CoA, iso-valeryl-CoA, or acetyl-CoA, 10 mM), 44 μl of a potassium phosphate buffer (100 mM, pH 7.4), and 2 μl of the purified HuAAT5 enzyme solution. The reactions were incubated at 30° C. for 3 h. To stop the reactions, 50 μl ethanol was added to each tube and the acylated compounds were extracted and analyzed as previously described.

TRPV3 ion channel = target: T1, TRPV3 ion channel (Homo sapiens, UniProt Q8NET8); details: cited from earlier work
T1 sequence (Q8NET8 1-790): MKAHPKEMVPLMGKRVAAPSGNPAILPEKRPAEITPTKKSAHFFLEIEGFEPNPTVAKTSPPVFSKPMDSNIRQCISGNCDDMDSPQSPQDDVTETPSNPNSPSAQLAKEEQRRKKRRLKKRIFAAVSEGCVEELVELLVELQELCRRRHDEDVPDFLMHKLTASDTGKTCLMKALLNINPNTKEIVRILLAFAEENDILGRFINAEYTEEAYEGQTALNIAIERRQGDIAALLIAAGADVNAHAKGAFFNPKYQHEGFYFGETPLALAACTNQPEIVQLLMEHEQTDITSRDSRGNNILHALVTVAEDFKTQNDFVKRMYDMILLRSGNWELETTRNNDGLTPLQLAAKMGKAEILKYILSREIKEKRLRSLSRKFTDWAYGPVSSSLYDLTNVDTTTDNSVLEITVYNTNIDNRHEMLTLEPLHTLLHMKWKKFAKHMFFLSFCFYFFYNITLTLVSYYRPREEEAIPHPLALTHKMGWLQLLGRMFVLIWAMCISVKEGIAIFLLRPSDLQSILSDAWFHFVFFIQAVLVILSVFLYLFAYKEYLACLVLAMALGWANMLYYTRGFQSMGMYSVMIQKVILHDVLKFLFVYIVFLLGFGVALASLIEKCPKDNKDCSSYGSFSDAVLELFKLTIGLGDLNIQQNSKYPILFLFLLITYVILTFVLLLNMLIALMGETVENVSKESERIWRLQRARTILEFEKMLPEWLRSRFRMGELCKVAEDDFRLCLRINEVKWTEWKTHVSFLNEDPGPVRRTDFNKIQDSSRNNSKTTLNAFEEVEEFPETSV

[1] = Activity of E. coli lysates containing recombinant HuAATs (AAT enzyme assay, UPLC-qTOF readout); assay type: biochemical, Helichrysum umbraculigerum; details: for acyltransferase activity of lysate towards the substrates: butyryl-CoA and hexanoyl-CoA as acyl donors, CBGA and heliCBGA as acceptors, 30° C., 3 h
Experimental: as §1
as §2, with “The assay with the purified HuAAT5 enzyme was performed by mixing 2 μl of the cannabinoid acceptors (OA, CBGA, heliCBGA, CBDA, Δ^9-THCA or CBCA) with 2 μl of the acyl-CoA donors (butyryl-CoA, iso-butyryl-CoA, hexanoyl-CoA, iso-valeryl-CoA, or acetyl-CoA, 10 mM), 44 μl of a potassium phosphate buffer (100 mM, pH 7.4), and 2 μl of the purified HuAAT5 enzyme solution. The reactions were incubated at 30° C. for 3 h.” left out

For `C=C(C)[C@@H]1CCC(C)=C[C@H]1c1c(O)cc(CCCCC)c(C(=O)O)c1O` [CBDA, cannabidiolic acid], the “acylation of the cannabinoid acceptor by purified HuAAT5” value (from here on “acylation of the cannabinoid acceptor”) (HuAAT5) was “successfully acylated”.

With `CC(C)=CCCC(C)=CCc1c(O)cc(CCc2ccccc2)c(C(=O)O)c1O` [heliCBGA, helicannabigerolic acid] the “acylation of the cannabinoid acceptor” value (HuAAT5) was “successfully acylated”.

With `CCCCCc1cc(O)cc(O)c1C(=O)O` [OA, Olivetolic acid] the “acylation of the cannabinoid acceptor” value (HuAAT5) was “successfully acylated”.

In the case of `CCCCCc1cc2c(c(O)c1C(=O)O)C=CC(C)(CCC=C(C)C)O2` (stereo not shown) [CBCA, cannabichromenic acid], the “acylation of the cannabinoid acceptor” value (HuAAT5) is reported as “inactive”.

For `CCC(C)C(=O)Oc1cc(CCc2ccccc2)cc(O)c1CC=C(C)C` (stereo not shown) [O-methylbutyryl deprenylhelycannabigenol], the “affinity for the ionotropic TRPV3 ion channel” value (TRPV3 ion channel) is given as “sub-micromolar”.

With `CCCCCc1cc(O)c(C/C=C(\C)CCC=C(C)C)c(O)c1C(=O)O` [CBGA, cannabigerolic acid] the “acylation of the cannabinoid acceptor” value (HuAAT5) was “successfully acylated”.

For `CCCCCc1cc2c(c(O)c1C(=O)O)[C@@H]1C=C(C)CC[C@H]1C(C)(C)O2` (relative stereo) [Δ^9-THCA, (−)-trans-Δ^9-tetrahydrocannabinolic acid], the “acylation of the cannabinoid acceptor” value (HuAAT5) was “inactive”.

B1: HuAAT14: BAHD alcohol acyltransferase from Helichrysum umbraculigerum, recombinantly expressed in E. coli, SEQ ID NO: 30 (protein, listed as Helichrysum umbraculigerum)
chain: MGTIYQSPMIKSSTPKIIEDLKVIIHDTFTIFPPHETEKRSMFLSNIDQVLTFNVETVHFFAANPDFPPQVVAEKLKLALSKALVPYDFLAGRLKLNHESQRFEFDCNGAGARFVVGSSEFELGEIGDLVYPNPGFRQLVQKSYDNLELHEKPLCILQLTSFKCGGFALGVATNHATFDGLSFKTFLQNLGSLAADQPLAVDPCNDRHLLAARSPPKVQFDHPELLKIPTGTDIPNPTVFDCPESQLDFKIFNLTSDDIAHLKTKAKDGPGSTNAKITGFNVVAAHVWRCKALSSGSEYDPERVSTVLYAVDIRSRLNLPLSLAGNAVLSAYASAKCKEIEEGPLSRLVEMVTEGTNRMTGEYARSVIDWGEVNKGFPNGEFLISSWWRLGFADVEYPWGKPRYSCPVVYHRKDIILLFPDIVGADNNNEVNVLVALPGKEMEKFETLFHKFLA
With B1 the “acyltransferase activity of lysate towards the substrates” value [1] was “showed activity towards all of these substrates; also recorded: acylated the cannabinoids with both acyl-CoAs”.

B2: HuAAT5: BAHD alcohol acyltransferase from Helichrysum umbraculigerum, recombinantly expressed in E. coli, SEQ ID NO: 19 (protein, listed as Helichrysum umbraculigerum)
chain: MPSSSSSPSSTADSVTIISKCTVYPHMKNSTPESLQLSVSDLPMLSCQYIQKGVLLSQPPPNHTNNIISHLKLSLSKTLSHFPPLAGRLSTDSHGHVSIICNDSGVEFVHSTANHLHTHQILPLNSDVHPCFKTFFAFDKTLSYAGHHQPIAAVQVTELADGLFIGCTVNHAVVDGTSFWNFFNTFAEITKGCQKVTNLPDFSRENVFISPVVLPLPSGGPSATFSGDEPLRERIIHFSRDAILKMKFRANNPLWRQPQNSDLDDTEIYGKVCNDINGKVNGAFKPKSEISSFQSLCGQLWRAVTRARKFNDPIKTTTFRMAVNCRHRLDPKVDKLYFGNLIQSIPTVASVGELLSHDLSWAANELHQNVVAHDNATVRRGVKDWENNPKLFPLGNFDGAMITMGSSPRFPMYNNDFGWGRPMAVRSGKANKFDGKISAFPGRDGDGSVDLEVVLAPETMACLERDHEFMQYVS
For B2, the “amounts of products catalyzed, compared between the two active enzymes” value ([1]; HuAAT5 versus HuAAT14) was “considerably greater amounts of products” and the “acyltransferase activity of lysate towards the substrates” value [1] was “showed activity towards all of these substrates; also recorded: acylated the cannabinoids with both acyl-CoAs”.

From patent publication US20250327043A1, “ALCOHOL ACYLTRANSFERASE AND A […], TISSUE, AND ORGANISM COMPRISING SAME” (YEDA RESEARCH AND DEVELOPMENT CO. LTD., priority 2022, published 2025)
